Measurements from patent US20130084379A1, “ACTIVE INGREDIENT DELIVERY SYSTEM” (FIRMENICH SA, priority 2010, published 2013).

Test: Dissolution kinetics in a model beverage base (Distek 2100B USP 2 dissolution system, UV/VIS probe at 324 nm)
Type: physicochemical
Details: 200 rpm, 20 ppm nominal
Procedure: The dissolution kinetics of the powder prepared in example 1 was compared to that of Compound 1 alone. Evaluation was performed under standard conditions using a Distek 2100B USP 2 dissolution system and a model beverage base.
The model beverage was prepared by stirring together 35 g sucrose, 1.5 g citric acid and 965.3 g deionised water until the sucrose was fully dissolved. Comparative sample 1 was prepared by adding 20 mg of Compound 1 (unencapsulated) to 1 litre of the beverage base to provide 20 ppm of compound 1. Sample 2 was prepared by adding 200 mg of the powder prepared in example 1 to 1 litre of the beverage to provide, once dissolved, a solution containing 20 ppm of compound 1. The samples were each stirred at 200 rpm and the concentration of compound 1 in solution was monitored as a function of time using a UV/VIS spectrometer probe (measuring absorbance at 324 nm). The results are given in the following table (where the values represent the amount (ppm) of Compound 1 in solution: […]

time at which 50% dissolution of Compound 1 was achieved: approximately 3600 seconds | Concentration in Solution (amount of Compound 1 in solution) (time 0 seconds): 0 ppm | Concentration in Solution (amount of Compound 1 in solution) (time 10 seconds): 0.1 ppm | Concentration in Solution (amount of Compound 1 in solution) (time 30 seconds): 0.2 ppm | Concentration in Solution (amount of Compound 1 in solution) (time 60 seconds): 0.3 ppm | Concentration in Solution (amount of Compound 1 in solution) (time 300 seconds): 0.6 ppm | Concentration in Solution (amount of Compound 1 in solution) (time 600 seconds): 1.4 ppm | Concentration in Solution (amount of Compound 1 in solution) (time 3600 seconds): 10.2 ppm
SMILES: CCCNC(=O)C(C)(C)COc1cccc2c1C(N)=NS(=O)(=O)N2 [Sample 1]
